Data on five compounds can be found in ChEMBL document CHEMBL4130471, “Design and synthesis of tranylcypromine derivatives as novel LSD1/HDACs dual inhibitors for cancer treatment” (Eur J Med Chem, 2017).

In experiment [1] the target is T1, Amine oxidase [flavin-containing] A (Homo sapiens, UniProt P21397).
T1 sequence (P21397 whole entry): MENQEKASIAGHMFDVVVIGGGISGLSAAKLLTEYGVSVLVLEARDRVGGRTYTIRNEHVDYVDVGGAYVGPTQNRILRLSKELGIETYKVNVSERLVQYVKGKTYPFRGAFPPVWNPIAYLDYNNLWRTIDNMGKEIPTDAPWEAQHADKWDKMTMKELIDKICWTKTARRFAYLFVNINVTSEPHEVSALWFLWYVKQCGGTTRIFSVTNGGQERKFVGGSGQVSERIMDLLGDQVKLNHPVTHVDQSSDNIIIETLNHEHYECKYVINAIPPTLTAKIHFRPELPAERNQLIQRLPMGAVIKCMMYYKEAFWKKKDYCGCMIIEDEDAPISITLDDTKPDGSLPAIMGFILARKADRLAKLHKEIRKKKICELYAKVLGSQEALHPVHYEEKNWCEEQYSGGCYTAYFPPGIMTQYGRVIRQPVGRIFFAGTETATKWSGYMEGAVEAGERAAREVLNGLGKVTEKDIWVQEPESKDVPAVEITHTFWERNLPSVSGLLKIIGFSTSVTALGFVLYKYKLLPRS
Description: Inhibition of MAOA (unknown origin) using beetle luciferin as substrate by MAO-Glo assay

In another experiment the target is Histone deacetylase 1 (Homo sapiens, UniProt Q13547). The experiment in a line: Inhibition of C-terminal His-tagged and C-terminal FLAG-tagged human HDAC1 expressed in baculovirus expression system using Ac-peptide substrate incubated for 15 mins by fluorescence based assay.
In a further experiment the test system is MGC-803. Description: cells. The conditions noted are these: Homo sapiens, MGC-803, 72 h. Type of experiment: functional, cell-based.
Another experiment relates to SW-620. The experiment in a line: cells. In kind it is functional, cell-based. The conditions noted are these: Homo sapiens, SW-620, 72 h.
Another experiment concerns the target Histone deacetylase 2 (Homo sapiens, UniProt Q92769).
A further experiment deals with PC-3. The experiment in a line: cells. Type of experiment: functional, cell-based. As to conditions: Homo sapiens, PC-3, 72 h; call rule not given here.
Experiment [2] has as its target Lysine-specific histone demethylase 1A (Homo sapiens, UniProt O60341).
Description: Inhibition of recombinant LSD1 (157 to 852 amino acids) (unknown origin) expressed in Escherichia coli BL21(DE) using H3K4me2 substrate by amplex red and horseradish peroxidase based fluorescence assay
The target of another experiment is Histone deacetylase 5 (Homo sapiens, UniProt Q9UQL6). The experiment in a line: Inhibition of C-terminal His-tagged human HDAC5 (656-1122 residues) expressed in baculovirus expression system using Ac-peptide substrate incubated for 15 mins by fluorescence based assay.
A further experiment deals with MCF7. Description: cells. The conditions noted are these: Homo sapiens, MCF7, 72 h. Type of experiment: functional, cell-based.
The target of experiment [3] is T2, Amine oxidase [flavin-containing] B (Homo sapiens, UniProt P27338).
T2 sequence (P27338 whole entry): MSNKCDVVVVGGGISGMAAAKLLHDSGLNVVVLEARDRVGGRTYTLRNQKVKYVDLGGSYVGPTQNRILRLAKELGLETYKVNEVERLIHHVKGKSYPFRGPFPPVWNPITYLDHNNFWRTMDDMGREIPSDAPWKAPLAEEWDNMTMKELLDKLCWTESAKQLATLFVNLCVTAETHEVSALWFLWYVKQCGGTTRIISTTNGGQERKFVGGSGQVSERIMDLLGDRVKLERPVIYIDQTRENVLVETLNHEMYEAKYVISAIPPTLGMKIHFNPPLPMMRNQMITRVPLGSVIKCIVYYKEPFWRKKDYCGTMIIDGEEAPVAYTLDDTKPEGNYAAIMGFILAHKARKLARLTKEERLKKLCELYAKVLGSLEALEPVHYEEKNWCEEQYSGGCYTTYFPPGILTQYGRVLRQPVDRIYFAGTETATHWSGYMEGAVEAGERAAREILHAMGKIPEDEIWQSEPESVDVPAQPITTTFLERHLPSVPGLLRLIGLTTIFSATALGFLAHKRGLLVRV
Description: Inhibition of MAOB (unknown origin) using beetle luciferin as substrate by MAO-Glo assay

The next experiment deals with A549. The experiment in a line: cells. As to conditions: Homo sapiens, A549, 72 h. In kind it is functional, cell-based.

Sequence of Histone deacetylase 5 (Q9UQL6 whole entry, the tested form may be a part): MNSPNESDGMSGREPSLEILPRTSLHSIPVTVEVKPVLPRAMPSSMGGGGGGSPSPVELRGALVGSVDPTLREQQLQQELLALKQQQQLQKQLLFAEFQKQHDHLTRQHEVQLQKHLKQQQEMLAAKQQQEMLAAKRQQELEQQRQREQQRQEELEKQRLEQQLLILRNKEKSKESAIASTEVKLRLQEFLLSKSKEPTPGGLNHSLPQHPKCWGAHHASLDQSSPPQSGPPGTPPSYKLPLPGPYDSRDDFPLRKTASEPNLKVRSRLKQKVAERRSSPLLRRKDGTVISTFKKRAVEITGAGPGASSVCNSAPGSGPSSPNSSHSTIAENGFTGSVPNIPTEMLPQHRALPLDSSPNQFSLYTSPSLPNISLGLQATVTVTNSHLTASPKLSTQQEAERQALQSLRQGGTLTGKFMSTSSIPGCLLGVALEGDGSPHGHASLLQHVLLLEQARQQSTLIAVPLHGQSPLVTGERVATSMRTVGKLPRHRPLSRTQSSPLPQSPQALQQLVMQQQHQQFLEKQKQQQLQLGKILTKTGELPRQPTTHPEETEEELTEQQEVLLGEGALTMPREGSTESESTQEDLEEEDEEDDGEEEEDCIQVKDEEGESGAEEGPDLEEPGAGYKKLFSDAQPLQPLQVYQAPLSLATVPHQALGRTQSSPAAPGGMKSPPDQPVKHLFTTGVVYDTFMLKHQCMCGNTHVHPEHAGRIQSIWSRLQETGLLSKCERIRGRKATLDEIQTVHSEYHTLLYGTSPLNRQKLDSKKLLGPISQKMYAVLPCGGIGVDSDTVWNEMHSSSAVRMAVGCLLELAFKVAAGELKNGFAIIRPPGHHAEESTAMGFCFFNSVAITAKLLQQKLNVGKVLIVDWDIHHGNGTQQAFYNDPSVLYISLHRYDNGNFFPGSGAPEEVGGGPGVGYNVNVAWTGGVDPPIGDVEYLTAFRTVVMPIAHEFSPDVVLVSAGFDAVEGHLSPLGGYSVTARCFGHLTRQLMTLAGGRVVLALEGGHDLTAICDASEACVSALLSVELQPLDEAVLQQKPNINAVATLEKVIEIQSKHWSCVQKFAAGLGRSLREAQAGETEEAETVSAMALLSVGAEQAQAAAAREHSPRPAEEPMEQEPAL
Sequence of Histone deacetylase 2 (Q92769 whole entry): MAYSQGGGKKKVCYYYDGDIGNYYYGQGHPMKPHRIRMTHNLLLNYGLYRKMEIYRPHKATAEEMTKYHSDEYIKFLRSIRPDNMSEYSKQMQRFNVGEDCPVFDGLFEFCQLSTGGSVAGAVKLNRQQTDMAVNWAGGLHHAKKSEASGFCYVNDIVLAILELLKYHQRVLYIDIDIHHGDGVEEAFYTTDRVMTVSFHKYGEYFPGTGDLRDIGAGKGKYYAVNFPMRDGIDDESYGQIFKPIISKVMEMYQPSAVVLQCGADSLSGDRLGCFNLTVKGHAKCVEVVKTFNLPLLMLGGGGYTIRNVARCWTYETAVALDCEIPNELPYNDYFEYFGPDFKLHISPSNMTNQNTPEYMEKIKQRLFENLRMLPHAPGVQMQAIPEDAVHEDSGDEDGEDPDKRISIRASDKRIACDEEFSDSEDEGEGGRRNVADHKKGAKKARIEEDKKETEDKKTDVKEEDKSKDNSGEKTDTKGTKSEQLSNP
Sequence of Histone deacetylase 1 (Q13547 whole entry): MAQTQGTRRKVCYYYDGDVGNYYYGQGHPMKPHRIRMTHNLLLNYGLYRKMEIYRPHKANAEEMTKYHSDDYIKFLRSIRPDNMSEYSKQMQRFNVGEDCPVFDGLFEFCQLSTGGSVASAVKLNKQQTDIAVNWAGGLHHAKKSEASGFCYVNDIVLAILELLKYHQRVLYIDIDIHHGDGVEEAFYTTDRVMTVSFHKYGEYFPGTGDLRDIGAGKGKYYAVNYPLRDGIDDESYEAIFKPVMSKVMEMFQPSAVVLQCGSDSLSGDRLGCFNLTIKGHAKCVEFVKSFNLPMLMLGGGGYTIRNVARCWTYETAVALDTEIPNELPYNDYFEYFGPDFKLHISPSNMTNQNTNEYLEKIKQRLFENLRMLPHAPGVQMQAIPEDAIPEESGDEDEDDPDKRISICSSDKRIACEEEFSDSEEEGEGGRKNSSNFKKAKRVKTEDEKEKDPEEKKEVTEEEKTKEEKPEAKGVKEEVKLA
Description for A549: Antiproliferative activity against human A549 cells incubated for 72 hrs by MTT assay
Description for Histone deacetylase 2: Inhibition of C-terminal His-tagged full length human HDAC2 expressed in baculovirus expression system using Ac-peptide substrate incubated for 15 mins by fluorescence based assay
Description for MCF7: Antiproliferative activity against human MCF7 cells incubated for 72 hrs by MTT assay
Description for MGC-803: Antiproliferative activity against human MGC803 cells incubated for 72 hrs by MTT assay
Description for PC-3: Antiproliferative activity against human PC3 cells incubated for 72 hrs by MTT assay
Description for SW-620: Antiproliferative activity against human SW620 cells incubated for 72 hrs by MTT assay

Consider `O=C(NO)c1ccc(CNC2CC2c2ccccc2)cc1` (stereo unspecified), for which the IC50 in [1] is 45.8 µM; at Histone deacetylase 1 it was 1.44 µM; in the experiment with MGC-803, 12 µM; with SW-620, 23.3 µM; at Histone deacetylase 2 it was 3.1 µM; in the experiment on PC-3, 19.8 µM. For the same compound, the IC50 is 4.09 µM in experiment [2]; “Not Active” against Histone deacetylase 5; 17.3 µM in the experiment on MCF7; above 100 µM in experiment [3]; 6.75 µM in the experiment with A549.

Turning to `Nc1ccccc1NC(=O)/C=C/c1ccc(CNC2CC2c2ccccc2)cc1` (stereo unspecified), the IC50 in experiment [1] amounted to 36.9 µM; against Histone deacetylase 1 it was 0.314 µM; in the experiment on MGC-803 it was 13.6 µM; with SW-620, 26.9 µM; against Histone deacetylase 2, 0.491 µM; in the experiment with PC-3, 11.6 µM. Further, the IC50 in experiment [2] is 3.85 µM; against Histone deacetylase 5, “Not Active”; in the experiment with MCF7, 22.1 µM; in [3] it was above 100 µM; in the experiment on A549, 3.17 µM.

Take `Nc1ccccc1NC(=O)c1ccc(CNC2CC2c2ccccc2)cc1` (stereo unspecified): the half-maximal inhibitory concentration (IC50) is 50.1 µM in experiment [1]; 0.218 µM on Histone deacetylase 1; 21.5 µM in the experiment on MGC-803; above 32 µM in the experiment on SW-620; 0.413 µM against Histone deacetylase 2; 21.7 µM with PC-3. Besides, the IC50 in [2] is 7.16 µM; at Histone deacetylase 5 it was “Not Active”; with MCF7 it was 19.5 µM; in [3], above 100 µM; with A549 it was 5.36 µM.

Regarding `O=C(/C=C/c1ccc(CNC2CC2c2ccccc2)cc1)NO` (stereo unspecified), the IC50 was found to be 39.4 µM in [1]; 0.012 µM against Histone deacetylase 1; 2.46 µM in the experiment on MGC-803; 4.03 µM in the experiment with SW-620; 0.025 µM against Histone deacetylase 2; 5.62 µM in the experiment on PC-3. The IC50 was 2.21 µM in experiment [2]; 2.97 µM at Histone deacetylase 5 (read-out: IC50); 6.24 µM in the experiment on MCF7; above 100 µM in [3]; 1.41 µM in the experiment with A549.

As to `O=C(CCCCCCC(=O)Nc1ccccc1)NO` [VORINOSTAT], the IC50 in experiment [1] and in experiment [3] was above 100 µM each time.
